Source: patent US20260008775A1, “AZOLE MODULATORS OF CHOLESTEROL BIOSYNTHESIS AND THEIR USE FOR PROMOTING REMYELINATION” (GENENTECH, INC., priority 2022, published 2026)
pEC50, pKi: −log10 of the molar value.

Key:
[1] = target: human emopamil binding protein and human 7-dehydrocholesterol reductase (hEBP-DHCR7) (Homo sapiens (Human), UniProt Q15125); assay: hEBP-DHCR7 radioligand binding assay (filter binding, membranes of co-expressing HEK293 cells); settings: competition with [3H] radioligand, 8 doses 0.06 to 5000 nM, Ki calculated from IC50
Chain of human emopamil binding protein and human 7-dehydrocholesterol reductase (hEBP-DHCR7) (Q15125 whole entry): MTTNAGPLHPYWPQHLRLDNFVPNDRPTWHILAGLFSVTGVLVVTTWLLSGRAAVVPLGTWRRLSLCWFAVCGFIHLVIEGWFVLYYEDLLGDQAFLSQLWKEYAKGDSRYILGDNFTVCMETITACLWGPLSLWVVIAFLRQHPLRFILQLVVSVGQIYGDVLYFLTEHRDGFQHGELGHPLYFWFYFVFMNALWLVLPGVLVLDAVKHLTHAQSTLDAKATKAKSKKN
How it was run: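 Membranes from HEK293 cells transiently co-expressing hEBP and DHCR7 (10 μg/well) were incubated for 3 h at 22 °C with tritiated spiro-sulfone radioligand (added at 25 nM) and compound at 1 μM or 0.06–5000 nM. Filtration and scintillation counting followed. Inhibition was normalised to 5 μM unlabelled ligand and DMSO, and Ki was derived as IC50/(1+[L]/Kd).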

[2] = tested on: zymostenol accumulation (EBP) in EpiSC-derived OPCs; assay: GC/MS-based sterol profiling, zymostenol accumulation in EpiSC-derived OPCs; format: cell-based, mouse; settings: Mus musculus, 24 h, EpiSC-derived OPCs, 24 hr, 8 doses from 0.15 nM to 333 nM; read-out: Mouse Zymostenol GCMS EC50
How it was run: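 Mouse epiblast stem cell-derived OPCs plated at 100,000 cells/well in growth-factor-free N2B27 and treated 24 h. Sterols extracted by modified Folch wash, silylated with BSTFA, and quantified by electron-impact GC/MS against cholesterol-d7 (zymostenol ion 458). Zymostenol normalised to 24 h 100 nM positive-control reference.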

EpiSC-derived OPCs = assay: In vitro phenotypic screening of OPCs, MBP high-content imaging (percentage of oligodendrocytes); format: cell-based, mouse; settings: Mus musculus, 72 h, 3 days, MBP stain, dose-response 0.5 nM to 1000 nM; read-out: OPC EC50
How it was run: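 Mouse epiblast stem cell-derived OPCs were plated without growth factors and given 8-point doses (1000 nM to 0.5 nM, 0.1% DMSO final) for 3 days at 37 °C. MBP/DAPI immunostaining and high-content imaging gave the percentage of oligodendrocytes. EC50 came from a Hill-equation fit.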

SMILES	pKi [1]	pEC50 [2]	pEC50 (EpiSC-derived OPCs)
CC(C)n1nc(-c2cncc(OC(F)F)c2)nc1[C@H]1[C@@H]2C[C@H](N3CCCOCC3)C[C@@H]21 [Compound 69, 4-((1R,3r,5S,6r)-6-(3-(5-(Difluoromethoxy)pyridin-3-yl)-1-isopropyl-1H-1,2,4-triazol-5-yl)bicyclo[3.1.0]hexan-3-yl)-1,4-oxazepane]	7.55	8.09	7.56
CC(C)n1nc(-c2cccc(OC(F)F)c2)nc1[C@H]1[C@@H]2C[C@H](N3CCOC[C@H]3C)C[C@@H]21 [Compound 76, (R)-4-((1R,3r,5S,6R)-6-(3-(3-(Difluoromethoxy)phenyl)-1-isopropyl-1H-1,2,4-triazol-5-yl)bicyclo[3.1.0]hexan-3-yl)-3-methylmorpholine]	7.82	8.93	8.81
CC(C)n1nc(-c2cnc(C(F)(F)F)nc2)nc1[C@H]1CC[C@@H](N2CCOCC2)C1 [Compound 95, 4-((1R,3S)-3-(1-Isopropyl-3-(2-(trifluoromethyl)pyrimidin-5-yl)-1H-1,2,4-triazol-5-yl)cyclopentyl)morpholine]	7.48	7.69	6.87
CC(C)n1nc(-c2ccc(C(F)(F)F)nc2)nc1[C@@H]1CC[C@H](N2CCOCC2)C1 [Compound 105, 4-((1S,3R)-3-(1-Isopropyl-3-(6-(trifluoromethyl)pyridin-3-yl)-1H-1,2,4-triazol-5-yl)cyclopentyl)morpholine]	8.05	8.50	7.93
CC(C)n1nc(-c2cc(C(F)(F)F)ncn2)cc1[C@H]1[C@@H]2C[C@H](N3CCOC[C@H]3C)C[C@@H]21 [Compound 106, (R)-4-((1R,3r,5S,6R)-6-(1-Isopropyl-3-(6-(trifluoromethyl)pyrimidin-4-yl)-1H-pyrazol-5-yl)bicyclo[3.1.0]hexan-3-yl)-3-methylmorpholine]	7.82	8.41	7.94
CC(C)n1nc(-c2cncc(C(F)(F)F)n2)cc1[C@H]1[C@@H]2C[C@@H](N3CCOCC3)C[C@@H]21 [Compound 107, 4-((1R,3s,5S,6r)-6-(1-Isopropyl-3-(6-(trifluoromethyl)pyrazin-2-yl)-1H-pyrazol-5-yl)bicyclo[3.1.0]hexan-3-yl)morpholine]	7.93	8.31	7.51
CC(C)n1nc(-c2cncc(C(F)(F)F)c2)nc1[C@H]1[C@@H]2C[C@H](N3CCOC[C@H]3C)C[C@@H]21 [Compound 120, (R)-4-((1R,3r,5S,6R)-6-(1-Isopropyl-3-(5-(trifluoromethyl)pyridin-3-yl)-1H-1,2,4-triazol-5-yl)bicyclo[3.1.0]hexan-3-yl)-3-methylmorpholine]	7.80	8.90	8.55
CC[C@@H]1CN([C@@H]2CC[C@H](c3nc(-c4ccc(C(F)(F)F)nc4)nn3C(C)C)C2)CCO1 [Compound 127, (R)-2-Ethyl-4-((1R,3S)-3-(1-isopropyl-3-(6-(trifluoromethyl)pyridin-3-yl)-1H-1,2,4-triazol-5-yl)cyclopentyl)morpholine]	7.24	8.88	8.22
CC[C@@H]1CN([C@H]2CC[C@@H](c3nc(-c4cnc(C(F)(F)F)nc4)nn3C(C)C)C2)CCO1 [Compound 152, (R)-2-Ethyl-4-((1S,3R)-3-(1-isopropyl-3-(2-(trifluoromethyl)pyrimidin-5-yl)-1H-1,2,4-triazol-5-yl)cyclopentyl)morpholine]	5.47	8.67	7.77
CC(C)n1nc(-c2ccc(C(F)(F)F)c(F)c2)nc1[C@H]1CC[C@@H](N2CCO[C@H](CF)C2)C1 [Compound 160, (S)-4-((1R,3S)-3-(3-(3-Fluoro-4-(trifluoromethyl)phenyl)-1-isopropyl-1H-1,2,4-triazol-5-yl)cyclopentyl)-2-(fluoromethyl)morpholine]	7.49	8.99	7.49
CC(C)n1nc(-c2cncc(C(F)(F)F)c2)nc1[C@H]1[C@@H]2C[C@@H](N3CCO[C@H](C)C3)C[C@@H]21 [Compound 162, (R)-4-((1R,3s,5S,6R)-6-(1-Isopropyl-3-(5-(trifluoromethyl)pyridin-3-yl)-1H-1,2,4-triazol-5-yl)bicyclo[3.1.0]hexan-3-yl)-2-methylmorpholine]	6.08	6.43	6.08

Further compounds by rising pKi [1], results first:

pKi [1]	pEC50 [2]	pEC50 (EpiSC-derived OPCs)	SMILES
5.93	6.48	6.01	CC(C)n1nc(-c2cccc(C(F)(F)F)n2)nc1[C@H]1[C@@H]2C[C@@H](N3CCOC[C@H]3C)C[C@@H]21 [Compound 72, (R)-4-((1R,3s,5S,6R)-6-(1-Isopropyl-3-(6-(trifluoromethyl)pyridin-2-yl)-1H-1,2,4-triazol-5-yl)bicyclo[3.1.0]hexan-3-yl)-3-methylmorpholine]
6.49	8.24	7.32	CC(C)n1nc(-c2cnc(C(F)(F)F)nc2)nc1[C@H]1CC[C@@H](N2CCO[C@H](C)C2)C1 [Compound 144, (R)-4-((1R,3S)-3-(1-isopropyl-3-(2-(trifluoromethyl)pyrimidin-5-yl)-1H-1,2,4-triazol-5-yl)cyclopentyl)-2-methylmorpholine]
6.96	8.40	8.08	CC(C)n1nc(-c2cccc(C(F)(F)F)n2)nc1[C@H]1[C@@H]2C[C@H](N3CCOC[C@H]3C)C[C@@H]21 [Compound 73, (R)-4-((1R,3r,5S,6R)-6-(1-isopropyl-3-(6-(trifluoromethyl)pyridin-2-yl)-1H-1,2,4-triazol-5-yl)bicyclo[3.1.0]hexan-3-yl)-3-methylmorpholine]
7.05	7.62	7.05	CC(C)n1nc(-c2cnc(C(F)(F)F)nc2)nc1[C@H]1CC[C@@H](N2CCO[C@H](CF)C2)C1 [Compound 161, (S)-2-(Fluoromethyl)-4-((1R,3S)-3-(1-isopropyl-3-(2-(trifluoromethyl)pyrimidin-5-yl)-1H-1,2,4-triazol-5-yl)cyclopentyl)morpholine]
7.44	8.03	7.03	CC(C)n1nc(-c2ccnc(C(F)(F)F)n2)cc1[C@H]1[C@@H]2C[C@H](N3CCOC[C@H]3C)C[C@@H]21 [Compound 103, (R)-4-((1R,3r,5S,6S)-6-(1-Isopropyl-3-(2-(trifluoromethyl)pyrimidin-4-yl)-1H-pyrazol-5-yl)bicyclo[3.1.0]hexan-3-yl)-3-methylmorpholine]
7.48	8.36	7.48	CC(C)n1nc(-c2cncc(C(F)(F)F)c2)nc1[C@H]1[C@@H]2C[C@H](N3CCO[C@H](C)C3)C[C@@H]21 [Compound 163, (R)-4-((1R,3r,5S,6R)-6-(1-Isopropyl-3-(5-(trifluoromethyl)pyridin-3-yl)-1H-1,2,4-triazol-5-yl)bicyclo[3.1.0]hexan-3-yl)-2-methylmorpholine]
7.72	7.28	6.36	CC(C)n1nc(-c2ccc(C(F)(F)F)nc2)nc1[C@@H]1CC[C@@H](N2CCOCC2)C1 [Compound 104, 4-((1R,3R)-3-(1-Isopropyl-3-(6-(trifluoromethyl)pyridin-3-yl)-1H-1,2,4-triazol-5-yl)cyclopentyl)morpholine]
7.82	8.41	7.94	CC(C)n1nc(-c2cnc(C(F)(F)F)nc2)cc1[C@H]1[C@@H]2C[C@H](N3CCOC[C@H]3C)C[C@@H]21 [Compound 97, (R)-4-((1R,3r,5S,6R)-6-(1-Isopropyl-3-(2-(trifluoromethyl)pyrimidin-5-yl)-1H-pyrazol-5-yl)bicyclo[3.1.0]hexan-3-yl)-3-methylmorpholine]
7.93	8.31	7.51	CC(C)n1nc(-c2ccnc(C(F)(F)F)n2)cc1[C@H]1[C@@H]2C[C@@H](N3CCOCC3)C[C@@H]21 [Compound 98, 4-((1R,3s,5S,6r)-6-(1-Isopropyl-3-(2-(trifluoromethyl)pyrimidin-4-yl)-1H-pyrazol-5-yl)bicyclo[3.1.0]hexan-3-yl)morpholine]
7.96	7.90	7.11	COCCN1CCN([C@H]2CC[C@@H](c3nc(-c4ccc(C(F)(F)F)nc4)nn3C(C)C)C2)CC1 [Compound 83, 1-((1S,3R)-3-(1-Isopropyl-3-(6-(trifluoromethyl)pyridin-3-yl)-1H-1,2,4-triazol-5-yl)cyclopentyl)-4-(2-methoxyethyl) piperazine]
8.14	8.96	8.69	CC(C)n1nc(-c2ccnc(C(F)(F)F)n2)cc1[C@H]1[C@@H]2C[C@H](N3CCOC[C@@H]3C)C[C@@H]21 [Compound 101, (S)-4-((1R,3r,5S,6S)-6-(1-Isopropyl-3-(2-(trifluoromethyl)pyrimidin-4-yl)-1H-pyrazol-5-yl)bicyclo[3.1.0]hexan-3-yl)-3-methylmorpholine]
8.16	8.53	8.27	CC(C)n1nc(-c2cccc(C(F)(F)F)c2)cc1[C@H]1[C@@H]2C[C@H](N3CCOCC3)C[C@@H]21 [Compound 170, 4-((1R,3r,5S,6r)-6-(1-Isopropyl-3-(3-(trifluoromethyl)phenyl)-1H-pyrazol-5-yl)bicyclo[3.1.0]hexan-3-yl)morpholine]
